Patent US12252481B2, “Anti-viral compounds” (Aligos Therapeutics, Inc., priority 2021, dated 2025)
Where two headings read alike, the source gives them in different places.

Key:
SARS-Cov-2 3CLpro = target: T1, SARS-Cov-2 3CLpro (Severe acute respiratory syndrome coronavirus 2, UniProt P0DTD1); assay: biochemical; conditions: 3CLpro, 30 mins preincubation, SAMDI-MS
T1 construct: 3CLpro and HRV3C was added using a Multidrop Combi

HRV3C = target: T2, HRV3C (Human rhinovirus 14, UniProt P03303); assay: biochemical; set-up: species or system HRV; conditions: HRV3C, 30 mins preincubation, SAMDI-MS; read-out: HRV IC50 (bound)
T2 construct: 3CLpro and HRV3C was added using a Multidrop Combi
T2 sequence (P03303 1538-1719): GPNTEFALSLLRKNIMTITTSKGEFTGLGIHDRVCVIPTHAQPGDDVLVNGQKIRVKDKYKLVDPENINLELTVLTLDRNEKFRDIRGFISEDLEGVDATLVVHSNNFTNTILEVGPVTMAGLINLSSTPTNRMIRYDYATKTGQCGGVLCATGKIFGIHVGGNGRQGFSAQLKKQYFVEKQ

[1] = system: human beta-coronavirus OC43; assay: OC43 coronavirus antiviral assay in HeLa cells (cytopathic effect, cell-titer-glo); format: cell-based; conditions: Betacoronavirus 1, OC43, HeLa, 144 h, 6 days at 33° C.
[2] = system: B.1.1.7 lineage SARS-CoV-2; assay: microbe, parasite or virus in culture; format: cell-based; conditions: Severe acute respiratory syndrome coronavirus 2, 96 h, read-out: A549-dual_ACE2_TMPRSS2 (EC50)
human cathepsin L = target: T3, human cathepsin L (Homo sapiens, UniProt P07711); assay: Cathepsin L assay (Z-FR-AMC fluorescence); format: biochemical; conditions: 10 pM human cathepsin L, 30 mins preincubation, Z-FR-AMC 2 μM
T3 construct: purchased R&D Systems
T3 sequence (P07711 114-333): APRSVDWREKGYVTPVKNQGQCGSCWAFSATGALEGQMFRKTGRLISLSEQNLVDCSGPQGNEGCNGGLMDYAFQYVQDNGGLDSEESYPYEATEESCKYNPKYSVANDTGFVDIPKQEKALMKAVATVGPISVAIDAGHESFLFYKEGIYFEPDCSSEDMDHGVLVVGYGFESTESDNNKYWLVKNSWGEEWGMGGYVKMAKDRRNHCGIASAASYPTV
Protocol: For the cathepsin L assay, 10 pM of human cathepsin L (R&D Systems; Minneapolis, MN) was preincubated for 30 mins with test compounds. Reactions were initiated by the addition of a peptide substrate Z—FR-AMC (final concentration 2 μM, Anaspec; Fremont, CA). Fluorescence was measured at 2-minute intervals for 30 mins using a 355/460 excitation/emission filter module on an Envision plate reader (Perkin Elmer; Waltham, MA). The IC50 values were calculated for each assay by fitting the curves using a four-parameter equation in GraphPad Prism.

[3] = read-out: SARS-Cov-2 IC50 (class)

| Structure (SMILES) | IC50 (SARS-Cov-2 3CLpro; [3]) [µM] | IC50 (HRV3C) [µM] | EC50 ([1]; read-out: EC50 (class)) [µM] | EC50 [2] [µM] | IC50 (human cathepsin L) [µM] | IC50 (SARS-Cov-2 3CLpro; read-out: SARS-Cov-2 IC50 (bound)) [µM] | EC50 ([1]; read-out: EC50 (bound)) [µM] | EC50 ([2]; […], numeric bounds given instead of class symbols) [µM] |
| --- | --- | --- | --- | --- | --- | --- | --- | --- |
| CC(C)(C)[C@H](NC(=O)C(F)(F)Cl)C(=O)N1C[C@H]2[C@@H]([C@H]1C(=O)N[C@H](C#N)C[C@@H]1CCNC1=O)[C@H]1C=C[C@@H]2C1(F)F [Compound 128, (1R,2R,3S,6S,7S)-4-[(2S)-2-(2-chloro-2,2-difluoroacetamido)-3,3-dimethylbutanoyl]-N-[(1S)-1-cyano-2-[(3S)-2-oxopyrrolidin-3-yl]ethyl]-10,10-difluoro-4-azatricyclo[5.2.1.0^{2,6}]dec-8-ene-3-carboxamide] | < 0.02 | > 0.5 | < 0.1 | < 0.1 | ≥ 10 | – | – | – |
| COC(C)(C)C(=O)N[C@H](C(=O)N1C[C@H]2[C@@H]([C@H]1C(=O)N[C@H](C#N)C[C@@H]1CCNC1=O)[C@H]1C=C[C@@H]2C1)C(C)(C)C [Compound 77] | 0.02 to 0.2 | > 10 | 1 to 10 | 0.1 to 1 | ≥ 10 | – | – | – |
| C[C@@H](OCC1CC1)[C@H](NC(=O)C(F)(F)F)C(=O)N1C[C@H]2[C@@H]([C@H]1C(=O)N[C@H](C#N)C[C@@H]1CCNC1=O)[C@H]1C=C[C@@H]2C1 [Example 99] | < 0.02 | > 0.5 | < 0.1 | < 0.1 | ≥ 10 | – | – | – |
| CC(C)(C)[C@H](NC(=O)C(F)(F)F)C(=O)N1C[C@H]2[C@@H]([C@H]1C(=O)N[C@H](C#N)C[C@@H]1CCNC1=O)[C@H]1C=C[C@@H]2C1(F)F [Example 82, (1S,3aS,4S,7R,7aR)—N-((S)-1-cyano-2-((S)-2-oxopyrrolidin-3-yl)ethyl)-2-((S)-3,3-dimethyl-2-(2,2,2-trifluoroacetamido)butanoyl)-8,8-difluoro-2,3,3a,4,7,7a-hexahydro-1H-4,7-methanoisoindole-1-carboxamide] | < 0.02 | > 10 | < 0.1 | < 0.1 | ≥ 10 | – | – | – |
| CC(C)(C)[C@H](NC(=O)C(F)(F)C(F)(F)F)C(=O)N1C[C@H]2[C@@H]([C@H]1C(=O)N[C@H](C#N)C[C@@H]1CCNC1=O)[C@H]1C=C[C@@H]2C1 [Compound 76, (1S,3aR,4S,7R,7aS)-N-((S)-1-cyano-2-((S)-2-oxopyrrolidin-3-yl)ethyl)-2-((S)-3,3-dimethyl-2-(2,2,3,3,3-pentafluoropropanamido)butanoyl)-2,3,3a,4,7,7a-hexahydro-1H-4,7-methanoisoindole-1-carboxamide] | < 0.02 | > 10 | < 0.1 | < 0.1 | ≥ 10 | – | – | – |
| CC(C)(C)[C@H](NC(=O)C(F)(F)F)C(=O)N1C[C@@H]2[C@@H]([C@@H]3CC[C@H]2O3)[C@@H]1C(=O)N[C@H](C#N)C[C@@H]1CCNC1=O (relative stereo) [Compound 58a] | – | > 10 | – | – | ≥ 10 | > 10 | > 10 | > 10 |
| CC(C)(C)[C@H](NC(=O)C(F)F)C(=O)N1C[C@H]2[C@@H]([C@H]1C(=O)N[C@H](C#N)C[C@@H]1CCNC1=O)[C@H]1C=C[C@@H]2C1 [Compound 72, (1S,3aR,4S,7R,7aS)-N-((S)-1-cyano-2-((S)-2-oxopyrrolidin-3-yl)ethyl)-2-((S)-2-(2,2-difluoroacetamido)-3,3-dimethylbutanoyl)-2,3,3a,4,7,7a-hexahydro-1H-4,7-methanoisoindole-1-carboxamide] | < 0.02 | > 10 | < 0.1 | < 0.1 | ≥ 10 | – | – | – |
| CC(C)([C@H](NC(=O)C(F)(F)F)C(=O)N1C[C@H]2[C@@H]([C@H]1C(=O)N[C@H](C#N)C[C@@H]1CCNC1=O)[C@H]1C=C[C@@H]2C1)C(F)(F)F [Compound 102a, (1S,3aR,4S,7R,7aS)-N-((S)-1-cyano-2-((S)-2-oxopyrrolidin-3-yl)ethyl)-2-((S)-4,4,4-trifluoro-3,3-dimethyl-2-(2,2,2-trifluoroacetamido)butanoyl)-2,3,3a,4,7,7a-hexahydro-1H-4,7-methanoisoindole-1-carboxamide] | < 0.02 | > 0.5 | < 0.1 | < 0.1 | – | – | – | – |
| CC(C)(C)[C@H](NC(=O)C(F)(F)C(F)(F)F)C(=O)N1C[C@@H]2[C@H]3C[C@@H]([C@@H]2[C@H]1C(=O)N[C@H](C#N)C[C@@H]1CCNC1=O)[C@H](F)C3 [Example 87, (1S,3aR,4S,6R,7S,7aR)—N-((S)-1-cyano-2-((S)-2-oxopyrrolidin-3-yl)ethyl)-2-((S)-3,3-dimethyl-2-(2,2,3,3,3-pentafluoropropanamido)butanoyl)-6-fluorooctahydro-1H-4,7-methanoisoindole-1-carboxamide] | < 0.02 | > 0.5 | < 0.1 | < 0.1 | – | – | – | – |
| CC(C)(C)[C@H](NC(=O)C(F)(F)F)C(=O)N1C[C@H]2[C@@H]([C@H]1C(=O)N[C@H](C#N)C[C@@H]1Oc3cnccc3NC1=O)[C@H]1C=C[C@@H]2C1 [Compound 113] | < 0.02 | > 0.5 | < 0.1 | < 0.1 | – | – | – | – |
| C[C@H]1[C@H]2[C@@H]([C@@H](C(=O)N[C@H](C#N)C[C@@H]3CCNC3=O)N1C(=O)[C@@H](NC(=O)C(F)(F)F)C(C)(C)C)[C@H]1C=C[C@@H]2C1 [Example 93, (1R,2S,3S,5S,6R,7S)—N-[(1S)-1-cyano-2-[(3S)-2-oxopyrrolidin-3-yl]ethyl]-4-[(2S)-3,3-dimethyl-2-(2,2,2-trifluoroacetamido)butanoyl]-5-methyl-4-azatricyclo[5.2.1.0^{2,6}]dec-8-ene-3-carboxamide] | < 0.02 | > 0.5 | < 0.1 | < 0.1 | – | – | – | – |
| C=C(C)C(C)(C)[C@H](NC(=O)C(F)(F)F)C(=O)N1C[C@H]2[C@@H]([C@H]1C(=O)N[C@H](C#N)C[C@@H]1CCNC1=O)[C@H]1C=C[C@@H]2C1 [Example 97] | < 0.02 | > 10 | < 0.1 | < 0.1 | – | – | – | – |
| CC(C)(C)[C@H](NC(=O)C(F)(F)F)C(=O)N1C[C@H]2[C@@H]([C@H]1C(=O)N[C@H](C#N)C[C@@H]1Oc3ccncc3NC1=O)[C@H]1C=C[C@@H]2C1(F)F [Compound 111] | < 0.02 | > 0.5 | < 0.1 | 0.1 to 1 | – | – | – | – |
| C[C@@H](OC(F)F)[C@H](NC(=O)C(F)(F)F)C(=O)N1C[C@H]2[C@@H]([C@H]1C(=O)N[C@H](C#N)C[C@@H]1CCNC1=O)[C@H]1C=C[C@@H]2C1 [Example 98, (1S,3aR,4S,7R,7aS)-N-((S)-1-cyano-2-((S)-2-oxopyrrolidin-3-yl)ethyl)-2-(O-(difluoromethyl)-N-(2,2,2-trifluoroacetyl)-L-threonyl)-2,3,3a,4,7,7a-hexahydro-1H-4,7-methanoisoindole-1-carboxamide] | < 0.02 | > 0.5 | < 0.1 | < 0.1 | – | – | – | – |
| CC(C)(C)[C@H](NC(=O)C(F)(F)F)C(=O)N1C[C@@H]2[C@H]3C[C@H](C[C@@H]3F)[C@@H]2[C@H]1C(=O)N[C@H](C#N)C[C@@H]1CCNC1=O [Example 96] | 0.02 to 0.2 | > 0.5 | 0.1 to 1 | 0.1 to 1 | – | – | – | – |
| CC(C)(C)[C@H](NC(=O)C(F)(F)F)C(=O)N1C[C@@H]2[C@@H]3CC[C@@H](C3)[C@@H]2[C@H]1C(=O)N[C@H](C#N)CC1CC2(CC(F)(F)C2)NC1=O (stereo partly drawn) [Compound 104, (1S,2S,3S,6R,7R)—N-[(1S)-1-cyano-2-{2,2-difluoro-6-oxo-5-azaspiro[3.4]octan-7-yl}ethyl]-4-[(2S)-3,3-dimethyl-2-(2,2,2-trifluoroacetamido)butanoyl]-4-azatricyclo[5.2.1.0^{2,6}]decane-3-carboxamide] | < 0.02 | > 0.5 | 0.1 to 1 | < 0.1 | – | – | – | – |
| CC(C)(C)[C@H](NC(=O)C(F)(F)F)C(=O)N1C[C@H]2[C@@H]([C@H]1C(=O)N[C@H](C#N)C[C@@H]1OCCNC1=O)[C@H]1C=C[C@@H]2C1(F)F [Compound 117] | < 0.02 | > 0.5 | < 0.1 | < 0.1 | – | – | – | – |
| CC(C)(C)[C@H](NC(=O)C(F)(F)F)C(=O)N1C[C@H]2[C@@H]([C@H]1C(=O)N[C@H](C#N)C[C@@H]1CCNC1=O)[C@H]1C=C[C@@H]2C1=O [Example 89, (1R,2R,3S,6S,7S)—N-[(1S)-1-cyano-2-[(3S)-2-oxopyrrolidin-3-yl]ethyl]-4-[(2S)-3,3-dimethyl-2-(2,2,2-trifluoroacetamido)butanoyl]-10-oxo-4-azatricyclo[5.2.1.0^{2,6}]dec-8-ene-3-carboxamide] | < 0.02 | > 10 | 0.1 to 1 | 0.1 to 1 | – | – | – | – |
